Test results reported in US20230242494A1, “MALONITRILE DERIVATIVES” (Hoffmann-La Roche Inc., priority 2020, published 2023).

The molecules below were run against T1, human cGAS (residues 161-522) (Homo sapiens, UniProt Q8N884) (assay: cGAS Activity Assay—Malachite Green). Settings: recombinant purified human cGAS 25 nM; 80 μM ATP, 80 μM GTP, 100 nM ISD; 4 hour at RT; phosphate detection by Malachite Green.
T1 construct: human cGAS (residues 161-522); made in house
Assay type: biochemical
Summary of the method: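 Human cGAS (161-522, 25 nM) in 20 mM TRIS pH 7.5, 5 mM MgCl2, 0.01% BSA with 80 μM ATP, 80 μM GTP and 100 nM ISD DNA, 4 h at RT. Pyrophosphate converted by PPase, phosphate read with Malachite Green at 620 nm; IC50 from 4-parameter fit of 16-point series.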

T1 sequence (Q8N884 161-522): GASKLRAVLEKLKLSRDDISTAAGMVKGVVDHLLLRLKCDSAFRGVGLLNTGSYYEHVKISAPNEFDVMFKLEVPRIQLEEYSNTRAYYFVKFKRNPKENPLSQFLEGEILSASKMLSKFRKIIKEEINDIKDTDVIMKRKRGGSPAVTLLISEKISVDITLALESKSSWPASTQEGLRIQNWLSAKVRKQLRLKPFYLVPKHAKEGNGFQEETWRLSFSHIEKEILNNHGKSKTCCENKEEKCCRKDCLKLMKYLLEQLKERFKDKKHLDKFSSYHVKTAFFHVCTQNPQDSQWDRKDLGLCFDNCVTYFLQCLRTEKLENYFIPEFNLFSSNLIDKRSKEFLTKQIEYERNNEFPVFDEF

Compound | IC50 [nM]
Cc1oncc1/C(O)=C(\C#N)C(=O)Nc1ncc(C(=O)N(C)Cc2ccccc2)cn1 [Example 100, N-benzyl-2-[[(Z)-2-cyano-3-hydroxy-3-(5-methylisoxazol-4-yl)prop-enoyl]amino]-N-methyl-2-pyrimidine-5-carboxamide] | 70
Cc1oncc1/C(O)=C(\C#N)C(=O)Nc1nccc(OCCF)n1 [Example 101, (Z)-2-cyano-N-(4-(2-fluoroethoxy)pyrimidin-2-yl)-3-hydroxy-3-(5-methylisoxazol-4-yl)acrylamide] | 120
Cc1oncc1/C(O)=C(\C#N)C(=O)Nc1ncc(CCc2ccccc2)cn1 [Example 102, (Z)-2-cyano-3-hydroxy-3-(5-methylisoxazol-4-yl)-N-(5-phenethylpyrimidin-2-yl)acrylamide] | 150
CCS(=O)(=O)c1cnc(NC(=O)/C(C#N)=C(\O)c2cnoc2C)nc1 [Example 103, (Z)-2-cyano-N-(5-(ethylsulfonyl)pyrimidin-2-yl)-3-hydroxy-3-(5-methylisoxazol-4-yl)acrylamide] | 40
Cc1oncc1/C(O)=C(\C#N)C(=O)Nc1ccc(C(C)(C)c2ccccc2)cc1 [Example 104, (Z)-2-cyano-3-hydroxy-3-(5-methylisoxazol-4-yl)-N-(4-(2-phenylpropan-2-yl)phenyl)acrylamide] | 3110
Cc1oncc1/C(O)=C(\C#N)C(=O)Nc1ncc(C(=O)Nc2ccccc2)cn1 [Example 105, 2-[[(Z)-2-cyano-3-hydroxy-3-(5-methylisoxazol-4-yl)prop-2-enoyl]amino]-N-phenyl-pyrimidin-5-carboxamide] | 150
Cc1oncc1/C(O)=C(\C#N)C(=O)Nc1ncc(C(=O)NCc2ccccc2)cn1 [Example 106, N-benzyl-2-[[(Z)-2-cyano-3-hydroxy-3-(5-methylisoxazol-4-yl)prop-2-enoyl]amino]pyrimidine-5-carboxamide] | 50
Cc1oncc1/C(O)=C(\C#N)C(=O)Nc1ncc(Br)cn1 [Example 107, (Z)-N-(5-bromopyrimidin-2-yl)-2-cyano-3-hydroxy-3-(5-methylisoxazol-4-yl)acrylamide] | 60
Cc1oncc1/C(O)=C(\C#N)C(=O)Nc1nc(Cl)c(-c2ccccc2)c(NS(=O)(=O)c2ccc(Cl)cc2)n1 [Example 108, (Z)-N-(4-chloro-6-((4-chlorophenyl)sulfonamido)-5-phenylpyrimidin-2-yl)-2-cyano-3-hydroxy-3-(5-methylisoxazol-4-yl)acrylamide] | 5010
Cc1oncc1/C(O)=C(\C#N)C(=O)Nc1ccc(S(=O)(=O)Cc2ccccc2Cl)cn1 [Example 109, (Z)—N-(5-((2-chlorobenzyl)sulfonyl)pyridin-2-yl)-2-cyano-3-hydroxy-3-(5-methylisoxazol-4-yl)acrylamide] | 720
COCCS(=O)(=O)c1cnc(NC(=O)/C(C#N)=C(\O)c2cnoc2C)nc1 [Example 110, (Z)-2-cyano-3-hydroxy-N-(5-((2-methoxyethyl)sulfonyl)pyrimidin-2-yl)-3-(5-methylisoxazol-4-yl)acrylamide] | 60
Cc1oncc1/C(O)=C(\C#N)C(=O)Nc1ncc(S(=O)(=O)c2ccccc2)cn1 [Example 111, (Z)-N-[5-(benzenesulfonyl)pyrimidin-2-yl]-2-cyano-3-hydroxy-3-(5-methylisoxazol-4-yl)prop-2-enamide] | 20
Cc1oncc1/C(O)=C(\C#N)C(=O)Nc1ncc([S+]([O-])c2ccccc2)cn1 (stereo not shown) [Example 112, (Z)-N-[5-(benzenesulfinyl)pyrimidin-2-yl]-2-cyano-3-hydroxy-3-(5-methylisoxazol-4-yl)prop-2-enamide] | 20
Cc1oncc1/C(O)=C(\C#N)C(=O)Nc1ccc(S(C)(=N)=O)cc1 (stereo not shown) [Example 113, (Z)-2-Cyano-3-hydroxy-3-(5-methylisoxazol-4-yl)-N-(4-(S-methylsulfonimidoyl)phenyl)acrylamide] | 330
Cc1oncc1/C(O)=C(\C#N)C(=O)Nc1ccc(S(=N)(=O)c2ccccc2)cc1 (stereo not shown) [Example 114, (Z)-2-cyano-3-hydroxy-3-(5-methylisoxazol-4-yl)-N-(4-(phenylsulfonimidoyl)phenyl)acrylamide] | 120
Cc1oncc1/C(O)=C(\C#N)C(=O)Nc1ccc(S(C)(=O)=O)cc1 [Example 115, (Z)-2-cyano-3-hydroxy-3-(5-methylisoxazol-4-yl)-N-(4-methylsulfonylphenyl) prop-2-enamide] | 180
Cc1oncc1/C(O)=C(\C#N)C(=O)Nc1ccc([S+](C)[O-])cc1 (stereo not shown) [Example 116, (Z)-2-cyano-3-hydroxy-3-(5-methylisoxazol-4-yl)-N-(4-methylsulfinylphenyl) prop-2-enamide] | 380

Compound | IC50 [nM]
COCCN(C)S(=O)(=O)c1cnc(NC(=O)/C(C#N)=C(\O)c2cnoc2C)nc1 [Example 117, (Z)-2-Cyano-3-hydroxy-N-(5-(N-(2-methoxyethyl)-N-methylsulfamoyl)pyrimidin-2-yl)-3-(5-methylisoxazol-4-yl)acrylamide] | 50
COCCNS(=O)(=O)c1cnc(NC(=O)/C(C#N)=C(\O)c2cnoc2C)nc1 [Example 118, (Z)-2-cyano-3-hydroxy-N-(5-(N-(2-methoxy-ethyl)sulfamoyl)pyrimidin-2-yl)-3-(5-methylisoxazol-4-yl)acrylamide] | 40
COCCN(C)S(=O)(=O)c1ccc(NC(=O)/C(C#N)=C(\O)c2cnoc2C)cc1 [Example 119, (Z)-2-Cyano-3-hydroxy-N-(4-(N-(2-methoxyethyl)-N-methylsulfamoyl)phenyl)-3-(5-methylisoxazol-4-yl)acrylamide] | 170
Cc1oncc1/C(O)=C(\C#N)C(=O)Nc1ccc(S(=O)(=O)N(C)CCN(C)C)cc1 [Example 120, (Z)-2-cyano-N-(4-(N-(2-(dimethylamino)ethyl)-N-methylsulfamoyl)phenyl)-3-hydroxy-3-(5-methylisoxazol-4-yl)acrylamide] | 670
Cc1oncc1/C(O)=C(\C#N)C(=O)Nc1ccc(S(=O)(=O)c2ccc(C#N)cc2)cc1 [Example 121, (Z)-2-Cyano-N-(4-((4-cyanophenyl)sulfonyl)phenyl)-3-hydroxy-3-(5-methylisoxazol-4-yl)acrylamide] | 380
Cc1oncc1/C(O)=C(\C#N)C(=O)Nc1ccc(S(=O)(=O)c2ccccc2C#N)cc1 [Example 122, (Z)-2-cyano-N-(4-((2-cyanophenyl)sulfonyl)phenyl)-3-hydroxy-3-(5-methylisoxazol-4-yl)acrylamide] | 130
Cc1oncc1/C(O)=C(\C#N)C(=O)Nc1ccc(S(=O)(=O)c2cccnc2)cc1 [Example 123, (Z)-2-cyano-3-hydroxy-3-(5-methylisoxazol-4-yl)-N-(4-(pyridin-3-ylsulfonyl)phenyl) acrylamide] | 210
COc1cnc(NC(=O)/C(C#N)=C(\O)c2cnoc2C)nc1-c1ccccc1 [Example 124, (Z)-2-cyano-3-hydroxy-N-(5-methoxy-4-phenylpyrimidin-2-yl)-3-(5-methylisoxazol-4-yl)acrylamide] | 170
Cc1oncc1/C(O)=C(\C#N)C(=O)Nc1ncc(OCC2CC2)c(-c2ccc(Cl)cc2)n1 [Example 125, (Z)-N-(4-(4-chlorophenyl)-5-(cyclopropylmethoxy)pyrimidin-2-yl)-2-cyano-3-hydroxy-3-(5-methylisoxazol-4-yl)acrylamide] | 2910
COCCOc1cnc(NC(=O)/C(C#N)=C(\O)c2cnoc2C)nc1-c1ccccc1 [Example 126, (Z)-2-cyano-3-hydroxy-N-(5-(2-methoxyethoxy)-4-phenylpyrimidin-2-yl)-3-(5-methylisoxazol-4-yl)acrylamide] | 420
Cc1oncc1/C(O)=C(\C#N)C(=O)Nc1ncc(OCC(F)(F)F)c(-c2ccc(Cl)cc2)n1 [Example 127, (Z)-N-(4-(4-chlorophenyl)-5-(2,2,2-trifluoroethoxy)pyrimidin-2-yl)-2-cyano-3-hydroxy-3-(5-methylisoxazol-4-yl)acrylamide] | 2340
COCCOc1cnc(NC(=O)/C(C#N)=C(\O)c2cnoc2C)nc1CCc1ccccc1 [Example 128, (Z)-2-cyano-3-hydroxy-N-(5-(2-methoxyethoxy)-4-phenethylpyrimidin-2-yl)-3-(5-methylisoxazol-4-yl)acrylamide] | 370
COc1cnc(NC(=O)/C(C#N)=C(\O)c2cnoc2C)nc1CCc1ccccc1 [Example 129, (Z)-2-cyano-3-hydroxy-N-(5-methoxy-4-phenethylpyrimidin-2-yl)-3-(5-methylisoxazol-4-yl)acrylamide] | 520
COc1ccc(CCc2cnc(NC(=O)/C(C#N)=C(\O)c3cnoc3C)nc2C(F)(F)F)cn1 [Example 130, (Z)-2-cyano-3-hydroxy-N-(5-(2-(6-methoxypyridin-3-yl)ethyl)-4-(trifluoromethyl)pyrimidin-2-yl)-3-(5-methylisoxazol-4-yl)acrylamide] | 1220
Cc1oncc1/C(O)=C(\C#N)C(=O)Nc1ncc(CCc2ccccc2)c(C(F)(F)F)n1 [Example 131, (Z)-2-cyano-3-hydroxy-3-(5-methylisoxazol-4-yl)-N-(5-phenethyl-4-(trifluoromethyl)pyrimidin-2-yl)acrylamide] | 2180
Cc1oncc1/C(O)=C(\C#N)C(=O)Nc1ncc(C(=O)N(C)Cc2ccccc2)c(-c2ccccc2)n1 [Example 132, (Z)—N-Benzyl-2-(2-cyano-3-hydroxy-3-(5-methylisoxazol-4-yl)acrylamido)-N-methyl-4-phenylpyrimidine-5-carboxamide] | 190
Cc1oncc1/C(O)=C(\C#N)C(=O)Nc1ncc(C(=O)N(C)Cc2ccccc2)c(CCc2ccccc2)n1 [Example 133, (Z)-N-benzyl-2-(2-cyano-3-hydroxy-3-(5-methylisoxazol-4-yl)acrylamido)-N-methyl-4-phenethylpyrimidine-5-carboxamide] | 1330
